Results from patent publication US4935424A, “4 or 5-(substituted piperazinylalkyl)-2-aminothiazoles as antipsychotic agents” (priority 1988, dated 1990).
Like-named read-outs stand apart in the source and are kept apart here.

Columns and labels:
[1] = system: locomotor activity in mice; assay: Inhibition of locomotor activity in mice; assay type: in vivo; settings: Mus musculus, IP
Method: (§1) Thus, the compounds of Formula I were tested for their ability to inhibit locomotor activity in mice according to the assay described in Pharmacol. Biochem. Behav. 1978 (8) 97; for their ability to inhibit haloperidol binding in a receptor binding assay described in Mol. Pharmacol. 1976 (12), 800; for their ability to inhibit brain dopamine synthesis in rats according to the protocol described in Naumyn-Schmiedeberg's Arch. Pharmacol., 1976 (296) 5; and for their ability to inhibit dopamine neuron firing in rats according to the protocol described in Nature New Biology, 1973 (245) 123.

dopamine neuron firing = assay: Inhibition of dopamine neuron firing in rats; assay type: in vivo; settings: IP
Method: as §1

haloperidol binding = molecular target: T1, haloperidol binding (Bos taurus, UniProt P20288); assay: Inhibition of haloperidol binding in a receptor binding assay; settings: for inhibition at 10 µM: at 10,000 nM
T1 construct: from tissue
T1 sequence (P20288 whole entry): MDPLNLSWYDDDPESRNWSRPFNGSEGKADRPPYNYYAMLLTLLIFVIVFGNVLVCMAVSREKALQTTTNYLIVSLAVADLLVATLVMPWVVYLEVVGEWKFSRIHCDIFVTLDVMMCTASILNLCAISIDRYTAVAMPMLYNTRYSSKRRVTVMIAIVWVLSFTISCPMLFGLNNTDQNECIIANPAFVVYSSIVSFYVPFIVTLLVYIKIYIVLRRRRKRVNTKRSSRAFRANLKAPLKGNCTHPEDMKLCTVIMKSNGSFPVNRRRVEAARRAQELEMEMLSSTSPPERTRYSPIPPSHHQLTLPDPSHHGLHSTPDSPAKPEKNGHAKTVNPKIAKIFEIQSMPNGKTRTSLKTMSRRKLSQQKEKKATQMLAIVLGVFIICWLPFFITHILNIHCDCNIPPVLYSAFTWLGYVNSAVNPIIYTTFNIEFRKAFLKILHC
Method: as §1

brain dopamine synthesis = assay: Inhibition of brain dopamine synthesis in rats; assay type: in vivo; settings: Rattus norvegicus, IP
Method: as §1

[2] = read-out: Inhibition of Haloperidol Binding (IC50 nM)

IC50 (haloperidol binding; [2]) [nM]	inhibition at 10 µM (haloperidol binding) [%]	Structure (SMILES)	ED50 [1] [mg/kg]	Inhibition of Dopamine Neuron Firing in Rats (dopamine neuron firing; 2.5 mg/kg) [%]	inhibition in vivo at 10 mg/kg (brain dopamine synthesis) [%]	inhibition in vivo at 1 mg/kg (brain dopamine synthesis) [%]	Inhibition of Dopamine Neuron Firing in Rats (dopamine neuron firing; 10 mg/kg) [%]	IC50 (haloperidol binding) [nM]
249		Cc1nc(N)sc1CCCN1CCN(c2ccccn2)CC1 [Example 1j, 4-Methyl-5-[3-[4-(2-pyridinyl)-1-piperazinyl]propyl]-2-thiazolamine]	4.6	98	100			
1060		Nc1nc(CCCCN2CCN(c3ncccn3)CC2)cs1 [Example 1a, 4-[4-[4-(2-Pyrimidinyl)-1-piperazinyl]butyl]-2-thiazolamine]	> 30					
		Nc1ncc(CCN2CCN(c3ccccc3)CC2)s1 [Example 2a, 5-[2-(4-Phenyl-1-piperazinyl)ethyl]-2-thiazolamine]	2.6					
1600		Nc1nc(CCCN2CCN(c3ncccn3)CC2)cs1 [Example 1g, 4-[3-[4-(2-Pyrimidinyl)-1-piperazinyl]-propyl]-2-thiazolamine]	> 30					
370		Cc1nc(N)sc1CCCN1CCN(c2ncccn2)CC1 [Example 1, 4-Methyl-5-[3-[4-(2-pyrimidinyl)-1-piperazinyl]-propyl]-2-thiazolamine]	6.3	90		82		
		Nc1ncc(CCN2CC=C(c3ccccc3)CC2)s1 [Example 2b, 5-[2-(3,6-Dihydro-4-phenyl-1(2H)-pyridinyl)ethyl]-2-thiazolamine]	0.47		25			
75		Cc1nc(N)sc1CCN1CCN(c2ccccn2)CC1 [Example 1h, 4-Methyl-5-[2-[4-(2-pyridinyl)-1-piperazinyl]ethyl]-2-thiazolamine]	1.4	100		87		
	100	Cc1nc(N)sc1CCN1CCN(c2ccccc2)CC1 [Example 1b, 4-Methyl-5-[2-(4-phenyl-1-piperazinyl)ethyl]-2-thiazolamine]	1.5				80	
118		Cc1nc(N)sc1CCN1CCN(c2ncccn2)CC1 [Example 1f, 4-Methyl-5-[2-[4-(2-pyrimidinyl)-1-piperazinyl]ethyl]-2-thiazolamine]	1.4					
488		Nc1nc(CCCCN2CCN(c3ccccn3)CC2)cs1 [Example 1k, 4-[4-[4-(2-Pyridinyl)-1-piperazinyl]-butyl]-2-thiazolamine]	5.5		63			
		Nc1ncc(CCN2CCN(c3ccccn3)CC2)s1 [Example 2, 5-[2-[4-(2-pyridinyl)-1-piperazinyl]ethyl]-2-thiazolamine]	5.9		92			
		Cl.Cl.Nc1nc(CCCN2CC=C(c3ccccc3)CC2)cs1 [Example 1e, 4-[3-(3,6-Dihydro-4-phenyl-1(2H)-pyridinyl)propyl]-2-thiazolamine, dihydrochloride]	1.7	78	44			346
	40	Nc1nc(CCCN2CCN(c3ccccc3)CC2)cs1 [Example 1c, 4-[3-(4-Phenyl-1-piperazinyl)propyl]-2-thiazolamine]	2.4					
	100	Nc1nc(CCCN2CCN(c3ccccn3)CC2)cs1 [Example 1i, 4-[3-[4-(2-Pyridinyl)-1-piperazinyl]-propyl]-2-thiazolamine]	7.6		43			

Structure (SMILES)	IC50 (haloperidol binding; [2]) [nM]	inhibition at 10 µM (haloperidol binding) [%]	ED50 [1] [mg/kg]	Inhibition of Dopamine Neuron Firing in Rats (dopamine neuron firing; 2.5 mg/kg) [%]	inhibition in vivo at 10 mg/kg (brain dopamine synthesis) [%]	inhibition in vivo at 1 mg/kg (brain dopamine synthesis) [%]	Inhibition of Dopamine Neuron Firing in Rats (dopamine neuron firing; 10 mg/kg) [%]	IC50 (haloperidol binding) [nM]
Cc1nc(N)sc1CCN1CC=C(c2ccccc2)CC1 [Example 1d, 5-[2-(3,6-dihydro-4-phenyl-1(2H)-pyridinyl)ethyl]-4-methyl-2-thiazolamine]	400		0.88	70	84			
